These results are taken from the NIST ThermoML archive (doi:10.1016/j.jct.2018.10.006).

± gives the expanded uncertainty stated by the source.

A short description of the data set: Molar enthalpy of transition or fusion. The conditions noted are these: Crystal 2; DSC.

`O=P([O-])([O-])[O-].[Cs+].[Ni+2]` [cesium nickel monophosphate]: the “Molar enthalpy of transition or fusion” value came to 0.336 ± 0.0287 kcal/mol.
